Results as given in ChEMBL document CHEMBL4325929, “Discovery of Tetrahydropyridopyrimidines as Irreversible Covalent Inhibitors of KRAS-G12C with In Vivo Activity” (ACS Med Chem Lett, 2018).
Blank lines part the entries; values can stand above or below the compound they belong to. Active and inactive are the calls of the source. No cut-off for these calls is given here.

What was measured:
GTPase KRas = GTPase KRas (Homo sapiens, UniProt P01116, G12C); assay: Inhibition of KRAS G12C mutant in human NCI-H358 cells assessed as reduction in ERK phosphorylation measured after 3 hrs by Western blot analysis; format: cell-based
[1] = system: GTPase KRas (Homo sapiens), P01116 [G12C]; assay: Binding affinity to KRAS G12C mutant (unknown origin) assessed as covalent modification at 3 uM after 15 mins by LC-MS analysis relative to control
Mus musculus [2] = assay: Ex vivo inhibition of KRAS G12C mutant in human MIAPaCa2 cells xenografted in nude-Fox1nu mouse assessed as target engagement in tumor at 30 to 100 mg/kg, ip administered once daily for 5 days measured 3 to 24 hrs post dose relative to control; format: functional; design: scale not given: the % may be the effect or the level left
[3] = Protein binding in CD-1 mouse plasma at 1 uM by equilibrium dialysis method; format: ADME, cell-free; details: read-out: PPB (converted)
[4] = Tmax in CD-1 mouse at 100 mg/kg, po; format: ADME, organism-based; details: in vivo
MDR1 [5] = assay: Apparent permeability across apical to basolateral side in pig LLC-PK1 cells expressing MDR1 at 1 uM; format: ADME, cell-based, Sus scrofa
[6] = Plasma concentration in CD-1 mouse at 100 mg/kg, ip measured after 0.5 hrs; format: ADME, organism-based
Mus musculus [7] = assay: Ex vivo inhibition of KRAS G12C mutant in human MIAPaCa2 cells xenografted in nude-Fox1nu mouse assessed as target engagement in tumor at 30 to 100 mg/kg, ip administered once daily for 1 day measured 3 to 24 hrs post dose relative to control; format: functional; design: scale not given: the % may be the effect or the level left
[8] = Toxicity in nude-Fox1nu mouse xenografted with human MIAPaCa2 cells assessed as body weight loss at 30 to 100 mg/kg, ip administered once daily for 17 days measured 2 times a week during compound dosing; format: organism-based; details: in vivo, 408 h
[9] = Cmax in CD-1 mouse at 100 mg/kg, po; format: ADME, organism-based; design: dose 100 mg/kg, route oral; details: in vivo
[10] = Plasma concentration in CD-1 mouse at 15 mg/kg, ip measured after 3 hrs; format: ADME, organism-based; details: in vivo, BLD = below limit of detection
[11] = AUC (infinity) in CD-1 mouse at 100 mg/kg, po; format: ADME, organism-based; design: dose 100 mg/kg, time infinity, route oral; details: in vivo
[12] = Plasma concentration in CD-1 mouse at 50 mg/kg, ip measured after 3 hrs; format: ADME, organism-based
[13] = Oral bioavailability in CD-1 mouse at 100 mg/kg; format: ADME, organism-based; details: in vivo
[14] = Volume of distribution at steady state in CD-1 mouse at 3 mg/kg, iv; format: ADME, organism-based; details: in vivo, read-out: Vdss
[15] = Toxicity in nude-Fox1nu mouse xenografted with human MIAPaCa2 cells assessed as adverse effect at 30 to 100 mg/kg, ip administered once daily for 17 days measured during compound dosing; format: organism-based; details: in vivo, 408 h
[16] = Plasma concentration in CD-1 mouse at 100 mg/kg, ip measured after 6 hrs; format: ADME, organism-based
[17] = Plasma concentration in CD-1 mouse at 100 mg/kg, ip measured after 3 hrs; format: ADME, organism-based
MIA PaCa-2 [18] = assay: Antitumor activity against human MIAPaCa2 cells xenografted in nude-Fox1nu mouse assessed as tumor regression at 30 to 100 mg/kg, ip administered once daily for 5 days; format: functional, organism-based
MDR1 [19] = assay: Apparent permeability across basolateral to apical side in pig LLC-PK1 cells expressing MDR1 at 1 uM; format: ADME, cell-based, Sus scrofa
MIA PaCa-2 [20] = assay: Antitumor activity against human MIAPaCa2 cells xenografted in nude-Fox1nu mouse assessed as reduction in tumor volume at 30 to 100 mg/kg, ip administered once daily for 17 days measured three times a week during compound dosing; format: functional, organism-based
[21] = Plasma concentration in CD-1 mouse at 15 mg/kg, ip measured after 0.5 hrs; format: ADME, organism-based
[22] = Plasma concentration in CD-1 mouse at 15 mg/kg, ip measured after 1 hr; format: ADME, organism-based
[23] = Plasma concentration in CD-1 mouse at 50 mg/kg, ip measured after 0.5 hrs; format: ADME, organism-based
[24] = Plasma concentration in CD-1 mouse at 50 mg/kg, ip measured after 1 hr; format: ADME, organism-based
[25] = Plasma concentration in CD-1 mouse at 100 mg/kg, ip measured after 1 hr; format: ADME, organism-based
[26] = Clearance in CD-1 mouse at 3 mg/kg, iv; format: ADME, organism-based; details: in vivo
[27] = Half life in CD-1 mouse at 3 mg/kg, iv; format: ADME, organism-based; details: in vivo
[28] = system: GTPase KRas (Homo sapiens), P01116 [G12C]; assay: Binding affinity to KRAS G12C mutant (unknown origin) assessed as covalent modification at 5 uM after 3 hrs by LC-MS analysis relative to control

Sequence of GTPase KRas (P01116 whole entry G12C): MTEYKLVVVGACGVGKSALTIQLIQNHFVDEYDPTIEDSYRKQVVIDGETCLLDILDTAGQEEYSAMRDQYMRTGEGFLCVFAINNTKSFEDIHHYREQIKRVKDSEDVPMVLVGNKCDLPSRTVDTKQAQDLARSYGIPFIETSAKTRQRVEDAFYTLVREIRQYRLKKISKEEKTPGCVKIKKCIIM
Sequence of GTPase KRas (Homo sapiens), P01116 [G12C] (P01116 whole entry G12C): as above

SMILES: C=CC(=O)N1CCN(c2nc(O[C@@H](C)CN(C)C)nc3c2CCN(c2cc(O)cc4ccccc24)C3)CC1
IC50 (GTPase KRas): 0.54 µM | Activity [1]: 21%

fraction unbound at 1 µM [3]: 0.05 | Tmax [4]: 60 min | Papp A→B at 1 µM (MDR1 [5]): 14 nm/s | concentration at 0.5 h [6]: 26 µg/mL | Cmax [9]: 0.59 µg/mL | Cp [10]: Bld | AUC(0-inf) [11]: 0.88 µg·h/mL | concentration at 3 h [12]: 0.25 µg/mL | bioavailability [13]: 2.4% | Vd [14]: 0.53 L/kg | concentration at 6 h [16]: 1.3 µg/mL | concentration at 3 h [17]: 1.4 µg/mL | Papp B→A at 1 µM (MDR1 [19]): 370 nm/s | concentration at 0.5 h [21]: 1.5 µg/mL | concentration at 1 h [22]: 0.97 µg/mL | concentration at 0.5 h [23]: 8.3 µg/mL | concentration at 1 h [24]: 2.6 µg/mL | Activity [1]: 84% | concentration at 1 h [25]: 17 µg/mL | clearance [26]: 2.76 L/h/kg | half-life [27]: 57.6 min
SMILES: C=CC(=O)N1CCN(c2nc(OC[C@@H]3CCCN3C)nc3c2CCN(c2cc(O)cc4ccccc24)C3)CC1
Activity (Mus musculus [2]): >65% | Activity (Mus musculus [7]): >65% | Activity [8]: Non-Toxic | Activity [15]: Non-Toxic | Activity (MIA PaCa-2 [18]): Active | Activity (MIA PaCa-2 [20]): Active

SMILES: C=CC(=O)N1CCN(c2nc(OCCCN(C)C)nc3c2CCN(c2cc(O)cc4ccccc24)C3)CC1
IC50 (GTPase KRas): 1.5 µM | Activity [1]: 22%

SMILES: C=CC(=O)N1CCN(c2ncnc3c2CCN(c2c(O)cccc2F)C3)CC1
IC50 (GTPase KRas): > 16 µM | Activity [28]: 2%

SMILES: C=CC(=O)N1CCN(c2ncnc3c2CCN(c2cc(O)cc4ccccc24)C3)CC1
IC50 (GTPase KRas): 7.6 µM | Activity [28]: 99% | Activity [1]: 8%

SMILES: C=CC(=O)N1CCN(c2nc(OCCN(C)C)nc3c2CCN(c2cc(O)cc4ccccc24)C3)CC1
IC50 (GTPase KRas): 1.9 µM | Activity [1]: 52%

SMILES: C=CC(=O)N1CCN(c2ncnc3c2CCN(c2c(C)ccc4[nH]ncc24)C3)CC1
IC50 (GTPase KRas): > 16 µM | Activity [28]: 22%

SMILES: C=CC(=O)N1CCN(c2ncnc3c2CCN(c2cc(O)ccc2F)C3)CC1
IC50 (GTPase KRas): > 16 µM | Activity [28]: 2%

SMILES: C=CC(=O)N1CCN(c2ncnc3c2CCN(c2cccc4ccc(O)cc24)C3)CC1
IC50 (GTPase KRas): > 16 µM | Activity [28]: 0%

SMILES: C=CC(=O)N1CCN(c2ncnc3c2CCN(c2cccc4ccccc24)C3)CC1
IC50 (GTPase KRas): > 16 µM | Activity [28]: 13%
